Data on six cell lines can be found in the supplement of paper PMC10307832.

Common to all, as to test: relative viability (nuclei count vs DMSO), 5 days (fraction); higher = more cells survive
Compound in the assay “Sorafenib + Alpelisib”: CNC(=O)c1cc(Oc2ccc(NC(=O)Nc3ccc(Cl)c(C(F)(F)F)c3)cc2)ccn1 [Sorafenib] + Cc1nc(NC(=O)N2CCC[C@H]2C(N)=O)sc1-c1ccnc(C(C)(C)C(F)(F)F)c1 [Alpelisib] (partner 2 µM)
The essentials: (§1)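 The day after seeding in 1536-well plates, lung cancer cell lines were treated by pin tool with a single drug, or with a fixed anchor-drug dose together with five library-drug doses (not always all listed) in √10 steps. After 5 days, a combined fix-and-stain solution (final 0.05% Triton X-100, 1% formaldehyde, 1 ug/ml Hoechst) was added. Nuclei counted on 4× images gave relative viability as treated counts over vehicle counts, reported as the median of duplicate plates.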

Compound in the assay “Sorafenib + Navitoclax”: CNC(=O)c1cc(Oc2ccc(NC(=O)Nc3ccc(Cl)c(C(F)(F)F)c3)cc2)ccn1 [Sorafenib] + CC1(C)CCC(c2ccc(Cl)cc2)=C(CN2CCN(c3ccc(C(=O)NS(=O)(=O)c4ccc(N[C@H](CCN5CCOCC5)CSc5ccccc5)c(S(=O)(=O)C(F)(F)F)c4)cc3)CC2)C1 [Navitoclax] (partner 0.5 µM)
The essentials: as §1

Compound in the assay “Sorafenib + Foretinib”: CNC(=O)c1cc(Oc2ccc(NC(=O)Nc3ccc(Cl)c(C(F)(F)F)c3)cc2)ccn1 [Sorafenib] + COc1cc2c(Oc3ccc(NC(=O)C4(C(=O)Nc5ccc(F)cc5)CC4)cc3F)ccnc2cc1OCCCN1CCOCC1 [Foretinib] (partner 0.25 µM)
The essentials: as §1

Compound in the assay “Sorafenib + Decitabine”: CNC(=O)c1cc(Oc2ccc(NC(=O)Nc3ccc(Cl)c(C(F)(F)F)c3)cc2)ccn1 [Sorafenib] + Nc1ncn([C@H]2C[C@H](O)[C@@H](CO)O2)c(=O)n1 [Decitabine] (partner 2 µM)
An outline of the steps:
as §1

Compound in the assay “Sorafenib + Lapatinib”: CNC(=O)c1cc(Oc2ccc(NC(=O)Nc3ccc(Cl)c(C(F)(F)F)c3)cc2)ccn1 [Sorafenib] + CS(=O)(=O)CCNCc1ccc(-c2ccc3ncnc(Nc4ccc(OCc5cccc(F)c5)c(Cl)c4)c3c2)o1 [Lapatinib] (partner 2 µM)
An outline of the steps:
as §1

On to NCI-H1993, for which the relative viability in the assay with Sorafenib + Alpelisib (first compound 0.08 µM) is 0.684; with Sorafenib + Alpelisib (first compound 0.253 µM), 0.7; with Sorafenib + Alpelisib (first compound 2.53 µM), 0.666; in the assay with Sorafenib + Alpelisib (first compound 8 µM), 0.674; in the assay with Sorafenib + Navitoclax (first compound 0.08 µM), 1.07; with Sorafenib + Navitoclax (first compound 0.253 µM) it was 0.973. The relative viability in the assay with Sorafenib + Navitoclax (first compound 2.53 µM) was determined as 0.914; with Sorafenib + Navitoclax (first compound 8 µM) it was 0.753; with Sorafenib + Foretinib (first compound 0.08 µM), 0.778; in the assay with Sorafenib + Foretinib (first compound 0.253 µM) it was 0.746; with Sorafenib + Foretinib (first compound 2.53 µM), 0.86; with Sorafenib + Foretinib (first compound 8 µM), 0.543. In addition, the relative viability with Sorafenib + Decitabine (first compound 0.253 µM) is 0.478; with Sorafenib + Decitabine (first compound 2.53 µM), 0.665; with Sorafenib + Decitabine (first compound 8 µM) it was 0.489; with Sorafenib + Lapatinib (first compound 0.08 µM), 0.893; with Sorafenib + Lapatinib (first compound 0.253 µM), 0.782; with Sorafenib + Lapatinib (first compound 8 µM), 0.78.
Regarding NCI-H2009, the relative viability was found to be 1.22 with Sorafenib + Alpelisib (first compound 0.08 µM); 1.03 with Sorafenib + Alpelisib (first compound 2.53 µM); 0.842 in the assay with Sorafenib + Alpelisib (first compound 8 µM); 1.11 with Sorafenib + Navitoclax (first compound 0.08 µM); 1.02 with Sorafenib + Navitoclax (first compound 0.253 µM); 1.1 with Sorafenib + Navitoclax (first compound 2.53 µM). Also, the relative viability amounted to 0.937 with Sorafenib + Navitoclax (first compound 8 µM); 1.27 in the assay with Sorafenib + Foretinib (first compound 0.08 µM); 1.18 in the assay with Sorafenib + Foretinib (first compound 0.253 µM); 1.09 with Sorafenib + Foretinib (first compound 2.53 µM); 0.916 in the assay with Sorafenib + Foretinib (first compound 8 µM); 0.375 with Sorafenib + Decitabine (first compound 0.08 µM). In addition, the relative viability was found to be 0.394 with Sorafenib + Decitabine (first compound 0.253 µM); 0.315 with Sorafenib + Decitabine (first compound 2.53 µM); 0.227 with Sorafenib + Decitabine (first compound 8 µM); 0.884 with Sorafenib + Lapatinib (first compound 0.08 µM); 0.812 with Sorafenib + Lapatinib (first compound 0.253 µM); 0.968 with Sorafenib + Lapatinib (first compound 2.53 µM). Besides, the relative viability with Sorafenib + Lapatinib (first compound 8 µM) is 0.47.
With NCI-H2023, the relative viability was 0.659 with Sorafenib + Alpelisib (first compound 0.08 µM); 0.603 with Sorafenib + Alpelisib (first compound 0.253 µM); 0.613 with Sorafenib + Alpelisib (first compound 2.53 µM); 0.438 with Sorafenib + Alpelisib (first compound 8 µM); 1.02 in the assay with Sorafenib + Navitoclax (first compound 0.08 µM); 0.984 in the assay with Sorafenib + Navitoclax (first compound 0.253 µM). Also, the relative viability in the assay with Sorafenib + Navitoclax (first compound 2.53 µM) came to 1.01; with Sorafenib + Navitoclax (first compound 8 µM) it was 0.978; in the assay with Sorafenib + Foretinib (first compound 0.08 µM), 1.18; in the assay with Sorafenib + Foretinib (first compound 0.253 µM), 0.795; in the assay with Sorafenib + Foretinib (first compound 2.53 µM) it was 0.972; in the assay with Sorafenib + Foretinib (first compound 8 µM), 0.591. Also, the relative viability in the assay with Sorafenib + Decitabine (first compound 0.08 µM) was 0.235; in the assay with Sorafenib + Decitabine (first compound 0.253 µM) it was 0.232; in the assay with Sorafenib + Decitabine (first compound 2.53 µM), 0.22; with Sorafenib + Decitabine (first compound 8 µM), 0.189; with Sorafenib + Lapatinib (first compound 0.253 µM), 0.738; with Sorafenib + Lapatinib (first compound 2.53 µM), 0.82. Moreover, the relative viability with Sorafenib + Lapatinib (first compound 8 µM) is 0.244.
In the case of NCI-H2085, the relative viability with Sorafenib + Alpelisib (first compound 0.08 µM) was found to be 0.998; with Sorafenib + Alpelisib (first compound 0.253 µM), 0.878; with Sorafenib + Alpelisib (first compound 2.53 µM) it was 0.882; in the assay with Sorafenib + Alpelisib (first compound 8 µM), 0.777; with Sorafenib + Navitoclax (first compound 0.08 µM) it was 1.21; in the assay with Sorafenib + Navitoclax (first compound 0.253 µM), 1.07. Moreover, the relative viability in the assay with Sorafenib + Navitoclax (first compound 2.53 µM) was 1.17; in the assay with Sorafenib + Navitoclax (first compound 8 µM) it was 0.901; with Sorafenib + Foretinib (first compound 0.08 µM) it was 0.948; with Sorafenib + Foretinib (first compound 0.253 µM) it was 0.856; with Sorafenib + Foretinib (first compound 2.53 µM) it was 0.864; with Sorafenib + Foretinib (first compound 8 µM), 0.874. The relative viability was determined as 0.608 in the assay with Sorafenib + Decitabine (first compound 0.08 µM); 0.566 in the assay with Sorafenib + Decitabine (first compound 0.253 µM); 0.573 with Sorafenib + Decitabine (first compound 2.53 µM); 0.49 with Sorafenib + Decitabine (first compound 8 µM); 0.761 with Sorafenib + Lapatinib (first compound 0.253 µM); 0.858 in the assay with Sorafenib + Lapatinib (first compound 2.53 µM). For the same cell line, the relative viability with Sorafenib + Lapatinib (first compound 8 µM) is 0.717.
On to NCI-H2087, for which the relative viability in the assay with Sorafenib + Alpelisib (first compound 0.08 µM) was determined as 0.88; with Sorafenib + Alpelisib (first compound 0.253 µM), 0.81; in the assay with Sorafenib + Alpelisib (first compound 2.53 µM), 0.924; in the assay with Sorafenib + Alpelisib (first compound 8 µM) it was 0.341; with Sorafenib + Navitoclax (first compound 0.08 µM), 1.05; with Sorafenib + Navitoclax (first compound 0.253 µM) it was 0.772. For the same cell line, the relative viability was 0.892 with Sorafenib + Navitoclax (first compound 2.53 µM); 0.29 with Sorafenib + Navitoclax (first compound 8 µM); 1.36 with Sorafenib + Foretinib (first compound 0.08 µM); 0.977 with Sorafenib + Foretinib (first compound 0.253 µM); 0.819 with Sorafenib + Foretinib (first compound 2.53 µM); 0.632 with Sorafenib + Foretinib (first compound 8 µM). The relative viability worked out at 0.304 with Sorafenib + Decitabine (first compound 0.08 µM); 0.231 with Sorafenib + Decitabine (first compound 0.253 µM); 0.172 with Sorafenib + Decitabine (first compound 2.53 µM); 0.107 in the assay with Sorafenib + Decitabine (first compound 8 µM); 0.958 with Sorafenib + Lapatinib (first compound 0.08 µM); 0.711 with Sorafenib + Lapatinib (first compound 0.253 µM). The relative viability with Sorafenib + Lapatinib (first compound 2.53 µM) came to 1.06; in the assay with Sorafenib + Lapatinib (first compound 8 µM) it was 0.611.
Take NCI-H2126: the relative viability worked out at 0.788 in the assay with Sorafenib + Alpelisib (first compound 0.08 µM); 0.743 with Sorafenib + Alpelisib (first compound 0.253 µM); 0.855 in the assay with Sorafenib + Alpelisib (first compound 2.53 µM); 0.892 in the assay with Sorafenib + Navitoclax (first compound 0.08 µM); 0.782 with Sorafenib + Navitoclax (first compound 0.253 µM); 0.888 with Sorafenib + Navitoclax (first compound 2.53 µM). In addition, the relative viability in the assay with Sorafenib + Navitoclax (first compound 8 µM) amounted to 0.867; with Sorafenib + Foretinib (first compound 0.08 µM), 1.26; in the assay with Sorafenib + Foretinib (first compound 0.253 µM) it was 1.09; with Sorafenib + Foretinib (first compound 2.53 µM), 1.1; with Sorafenib + Foretinib (first compound 8 µM) it was 1.2; with Sorafenib + Decitabine (first compound 0.08 µM), 0.631. Also, the relative viability in the assay with Sorafenib + Decitabine (first compound 0.253 µM) stood at 0.524; with Sorafenib + Decitabine (first compound 2.53 µM), 0.562; with Sorafenib + Decitabine (first compound 8 µM), 0.643; with Sorafenib + Lapatinib (first compound 0.08 µM), 0.766; with Sorafenib + Lapatinib (first compound 0.253 µM), 0.642; with Sorafenib + Lapatinib (first compound 2.53 µM), 0.808. For the same cell line, the relative viability in the assay with Sorafenib + Lapatinib (first compound 8 µM) came to 0.792.
